Results taken from patent US9296631B2, “Preparation of environmentally acceptable scale inhibitors” (Ecolab USA Inc., priority 2008, dated 2016).

Experiments:
[1] = OECD 306 biodegradation test, closed bottle method; conditions: percent of measured COD, no substrate, acidic, non-neutralized form; for BIODEGRADATION by OECD 306 Max, 28 d (%): 28 days; for BIODEGRADATION by OECD 306 Max, 63 d (%): 63 days
Method: Full details of the procedure and methods of calculation are publicly available in OECD documents. In all cases, the tests were performed without a substrate and the percent biodegradation was determined as a percentage of the measured chemical oxygen demand (COD).
Each of the datasets presented in Table 1 and FIGS. 2 through 5 were obtained on the products as described in their acidic, non-neutralized forms.

[2] = Scale inhibitor performance, dynamic loop method; conditions: Field I brine, 128 C, pH 7.7, 10 mL/min; hold time 1 hour
Description: A number of scale inhibitor performance tests were undertaken using the dynamic loop method. This method is widely used in the oilfield service industry and is designed to evaluate the ability of a candidate scale inhibitor to delay the blockage of a small diameter metal capillary when injected with a scaling brine at constant flow rate under selected test conditions. The test conditions and water compositions are generally selected to represent, at least in-part, the process conditions under which a scale inhibitor might be deployed. The flow rate of the test brine is generally selected to allow the experiment to be performed in a repeatable and controlled manner. […]
Typically, one or more tests without any added scale inhibitor (blank tests) were performed in order to determine the scaling time for the un-inhibited brine under the given test conditions. […] The deposition of scale was monitored by measuring the differential pressure (ΔP) developed across the test capillary over time. […] Alternatively, the concentration of the scale inhibitor can be reduced step-wise and the minimum inhibitor concentration (MIC) required for preventing a given increase in ΔP over a given time period can be determined. […]
To prepare the test water, each water composition was divided into two parts. […] The pH of the individual waters was also measured and adjusted. […]

| Compound | BIODEGRADATION by OECD 306 Max, 28 d (%) [1] [%] | BIODEGRADATION by OECD 306 Max, 63 d (%) [1] [%] | BIODEGRADATION by OECD 306 Max, 28 d (%) ([1]; listed as Phosphonate 1) | MIC Field I (ppm) [2] |
| --- | --- | --- | --- | --- |
| O=P(O)(O)CN(CCO)CP(=O)(O)O [MEA, monoethanolamine bis(methylene phosphonic acid)] | 6 | 3 |  |  |
| O=P(O)(O)CN(CCN(CP(=O)(O)O)CP(=O)(O)O)CCN(CP(=O)(O)O)CP(=O)(O)O [DETA, diethylene triamine penta(methylene phosphonic acid)] | 0 |  | 0 | 6-8 ppm |
| BAEE | 0 | 5 |  |  |
| O=P(O)(O)CN(CCCCCCN(CP(=O)(O)O)CP(=O)(O)O)CCCCCCN(CP(=O)(O)O)CP(=O)(O)O [BHMTPA, bis(hexamethylene) triamine penta(methylene phosphonic acid)] | 6 |  |  |  |
| O=P(O)(O)CN(CCN(CCN(CP(=O)(O)O)CP(=O)(O)O)CP(=O)(O)O)CCN(CP(=O)(O)O)CP(=O)(O)O [TETHMPA, tri-ethylene tetra amine hexa(methylene phosphonic acid)] | 0 |  |  |  |
